Assay [1] deals with iPSC-derived pericytes/mesenchymal cells. Description: Contractile smooth muscle marker expression in iPSC-derived pericytes/mesenchymal cells. Particulars: ALK5 inhibitor. The format is cell-based, human. The method, then:
Our differentiation system facilitates simultaneous derivation and expansion of pericytes and ECs from iPSC lines. […] Thus, a renewable source of pericytes/SMCs was created for co-culture with ECs that would in principle be able to simulate endothelial-pericyte interaction in humans.
iPSC-derived pericytes/mesenchymal cells were derived from the CD31− fraction emerging during the endothelial differentiation protocol. CD31− cells were plated on gelatin coated plates in EGM-2 media (Lonza). After 4 days medium was replaced by DMEM+10% FBS supplemented with TGFβ3 (2 ng/ml, Peprotech) and PDGF-BB (4 ng/ml, Peprotech). iPSC-derived pericytes were routinely maintained on gelatin-coated plates in DMEM+10% FBS. Cells were characterized for the expression of pericyte and mesenchymal cell-specific markers by flow cytometry and immunofluorescent staining as describe above.
ECs and pericytes were cultured as described above on gelatin coated coverslips. Cells were fixed with 4% PFA, permeabilized and stained with the following antibodies as described (Orlova et al., Manuscript in preparation): anti-Ve-Cadherin (1:200, CellSignaling), anti-vWF (1:200, Dako), anti-CD31 (1:200, Dako), anti-SM22a (1:200, Abcam), anti-SMA (1:400, Sigma), anti-CNN1 (1:200, Sigma).

Assay [2] concerns hPSCs. Description: Monolayer endothelial differentiation of hPSCs in defined medium, flow cytometry at day 10. The format is cell-based, human. As to conditions: VEGF together with SB-431542 5 μM from day 3, versus VEGF only; average over several cell lines. The text has this:
hiPSC lines were generated from Fib or BOECs using conditional lentiviral vectors containing the four transcription factors oct4, c-myc, Klf4 and Sox2, and characterized as described previously (Dambrot et al., 2013; Freund et al., 2008; Orlova et al., manuscript in preparation). hiPSCs and hESC (line HES-NL4; (van de Stolpe et al., 2005)) were routinely maintained on growth factor reduced MATRIGEL®-(BD, 354230) coated plates in mTeSR media (StemCell Technologies, 05850) and passaged mechanically. Differentiation was induced three days after passaging colonies by replacing mTeSR medium with the differentiation media based on BPEL (without PVA) (Ng et al., 2008) with timed addition of the following growth factors: 25 ng/ml ActivinA (Miltenyi, 130-095-547), 30 ng/ml BMP4 (Miltenyi, 130-095-549), VEGF165 (R&D Systems, 293-VE) and small molecule inhibitor CHIR99021 (Tocris, 4423). At day 3 and day 7 of differentiation, the media was refreshed with BPEL containing VEGF and 5 μM SB43152 (Tocris, 1614) only.
Cells were dissociated with TrypLE Select and washed once with the FACs buffer with the 10% FBS, followed by the single wash with the FACs buffer. […] In some experiment samples were analyzed with the MACSQuant VYB (Miltenyi). […]

This note sets out measurements from US10119122B2, “Differentiation and expansion of endothelial cells from pluripotent stem cells and the in vitro formation of vasculature like structures” (Academisch Ziekenhuis Leiden, priority 2013, dated 2018).

`NC(=O)c1ccc(-c2nc(-c3ccc4c(c3)OCO4)c(-c3ccccn3)[nH]2)cc1` [SB431542, reference compound]: the “SM22 expression in pericytes” value in assay [1] was “no effect on SM22 expression in pericytes”. Besides, the “increase in the yield of ECs” value in assay [2] amounted to 30%.
